PMC11232398, “Antimalarial activity of cecropin antimicrobial peptides derived from Anopheles mosquitoes” (Antimicrobial Agents and Chemotherapy, 2024)
Like-named read-outs stand apart in the source and are kept apart here.

Experiments:
[1] = system: Plasmodium falciparum 3D7; experiment: Transmission electron microscope analysis of parasite morphology; assay type: cell-based; conditions: TEM
Method: 3D7 strain parasites with parasitemia of 3% ~ 5% at a hematocrit of 2% were planted in 12-well plates, 3 mL/well. A 40-µM concentration of An-cecB or 200 µM An-cecB-1 was added and incubated for 30 min or 60 min. PBS was used as a control.
After incubation, the parasites were washed three times with ICM, and the electron microscope fixative solution (provided by the company) was added to keep the parasites clumped for 2 hours at room temperature. Finally, the samples were sent to a commercial company at 4°C for transmission electron microscope analysis.

[2] = system: P. falciparum 3D7 (sensitive strain); experiment: In vitro antimalarial activity, 3-day inhibition assay; assay type: cell-based, Plasmodium falciparum
Method: Blood stages of the laboratory clones P. falciparum 3D7 (sensitive strain), P. falciparum 803 (artemisinin-resistant strain), and P. falciparum Dd2 (chloroquine-resistant strain) were cultured in vitro according to the method of Trager and Jensens with minor modifications ([37]). Briefly, cultures were maintained in O-positive human erythrocytes (RBCs) as host cells at 2% hematocrit and maintained in complete medium (CM) [RPMI-1640 culture medium supplemented with NaHCO3 (2 mg/mL), hypoxanthine (50 µg/mL), HEPES (5.96 mg/mL), albumax II (1%), and gentamicin (40 µg/mL)]. The cultures were diluted to 1% parasitemia and 2% hematocrit in CM and incubated in a humidified atmosphere with 5% O2, 5% CO2, and 90% N2 at 37°C. Prior to experiments, the cultures were highly synchronized for ring stages using 5% sorbitol twice at a 40-h interval. Briefly, ring stage cultures were centrifuged and the pellet was washed once in incomplete medium (ICM, RPMI-1640 without addition). Then, the pellet was resuspended in 5% sorbitol and incubated at 37°C for 10 min. After incubation, the suspension was centrifuged and the pellet was washed once and resuspended in medium. The development of the parasite was observed using light microscopy, and parasitemia was determined by counting at least 10,000 RBCs on Giemsa’s solution-stained thin blood smears.
Highly synchronous ring stage parasites were used to investigate the in vitro antimalarial activity of the peptides. For preliminary screening of in vitro antimalarial activity, a 3-day inhibition assay was used to test the antimalarial activity of An-cecA, An-cecB, and An-cecC. […] For IC50 assay, a series of concentrations of peptides were added to the parasite culture. The concentrations of An-cecB were 5, 15, 20, 25, 30, 35, and 40 µM, while those of An-cecB-1 were 20, 30, 40, 50, 60, 70, 80, and 90 µM. After 72 hours of incubation, the antimalarial effects of peptides were estimated. Thin blood films stained with Giemsa’s solution were counted under a microscope. The parasitemia of cultures treated with peptides was compared with that of control. IC50 was calculated by GraphPad Prism.

[3] = system: Plasmodium berghei (ANKA); assay type: in vivo; conditions: parasitemia on day 4, BALB/c mice
Method: The in vivo antimalarial activity of peptides was evaluated using a 4-day suppressive test in P. berghei-infected mouse model mice ([44]). The mice were divided into five groups of six mice. Donor mice were infected with 200 µL of P. berghei parasite inoculum by intraperitoneal injection. Parasitized blood was collected from the tail vein of donor mice and diluted with 0.9% sodium chloride solution. Mice were then infected with saline suspension of 1 × 10^7 parasitized erythrocytes (0.2 mL) by intraperitoneal injection (Day0). Four hours after infection, each of the three groups of mice was treated with peptide by intraperitoneal injection at daily doses of 10, 25, and 50 mg/kg for 4 consecutive days. Positive control mice were treated with chloroquine at daily doses of 10 mg/kg and negative control mice with normal saline. On day 4 (96 hours post infection), the parasitemia of each mouse was determined under a light microscope by examination of Giemsa’s solution-stained thin blood smears prepared from mouse tail blood ([28]). The mean parasitemia in each group of mice was used to calculate the % suppression for each dose using the following formula:
%suppression = (parasitemia of negative control − parasitemia of test) * 100/parasitemia of negative control.
The antimalarial activity of the peptides was determined from the ratio of the percentage of parasite reduction in treated and negative control groups ([44]). Results were expressed as median (range) values.

[4] = system: RBCs infected by schizonts of P. falciparum 3D7; experiment: Hemolytic activity on RBCs infected by schizonts; assay type: cell-based, human; conditions: percoll-purified 3D7 schizonts, 2% hematocrit in PBS
Method: To test the hemolytic activity of the peptides against RBCs infected by Plasmodium, schizonts of the P. falciparum 3D7 strain were collected. The parasite culture of mainly schizonts was centrifuged and resuspended to 50% hematocrit. Then, the resuspended culture was carefully laid on top of the gradient with 3 mL 70% and 3 mL 40% percoll-sorbitol solution. After centrifugation at 2,300 × g for 20 min at 20°C, schizonts from the 40/70% interface were collected and washed twice with 10× volume of ICM. The collected parasites were resuspended in PBS to 2% hematocrit for hemolysis assay as described above.

Bacillus subtilis (ATCC) = experiment: Antimicrobial assay, broth dilution; assay type: cell-based; conditions: B. subtilis
Method: (§1) Gram-positive bacteria S. aureus, B. subtilis, and Gram-negative E. coli were used in antimicrobial assays. Bacteria were first grown in LB (Luria-Bertani) broth to an absorbance of 0.8 at 600 nm. The antibacterial behavior of the peptides was studied via the agar disc diffusion assay and broth microdilution method ([41], [42]). The agar plates were made by pouring 20 mL of LB broth containing 1.5% agar into 60-mm Petri dishes. Then, a 100-µL bacterial suspension (10^6 CFU/mL) was spread over the LB agar plate. Ten microliters of the 2-mg/mL peptide sample was carefully dropped onto sterile 2-mm diameter paper discs that had been previously attached to the plate. The plates were carefully placed in an incubator at 37°C for 24 hours. If an examined sample had antimicrobial activity, a clear zone was observed around the filter paper representing inhibition of bacterial growth. The MIC was determined by the broth dilution method, and the absorbance value was measured at an optical density at 600 nm (OD600) to determine the inhibition rate of peptides at different concentrations against each bacteria. Then, the MIC at which no visible growth occurred was recorded ([38]). The MIC50 was calculated by GraphPad Prism.

[5] = system: Staphylococcus aureus (ATCC 6538); experiment: Antimicrobial assay, broth dilution; assay type: cell-based; conditions: S. aureus
Method: as §1

[6] = system: Escherichia coli (ATCC 25922); experiment: Antimicrobial assay, broth dilution; assay type: cell-based; conditions: E. coli
Method: as §1

[7] = system: methyl-β-cyclodextrin-treated RBCs; experiment: Hemolytic activity on cholesterol-depleted erythrocytes; assay type: cell-based, human; conditions: RBCs treated with 7.5 mM methyl-β-cyclodextrin for 2 hours at 37°C
Description: Cholesterol is the main component of the RBC membrane and is important for maintaining its stability ([39]). Plasmodium falciparum infection efficiently depletes the red blood cells of cholesterol, which renders […] membranes susceptible to lysis ([40]). Therefore, methyl-β-cyclodextrin treatment was used to simulate the RBC cholesterol depletion caused by infection with Plasmodium. RBCs were washed once and then resuspended with PBS at 0.5% hematocrit. After treatment with the indicated concentration (7.5 mM) of methyl-β-cyclodextrin (Sigma) in RPMI for 2 hours at 37°C, the treated RBCs were washed with PBS and hemolysis assays were performed as described above. Two independent tests with five technical replicates were performed for each hemolysis assay.

[8] = 40 µM An-cecB or 200 µM An-cecB-1, total 20 / 22
[9] = 200 µM peptide, 3D7, Giemsa smears
[10] = 50 µM peptide, 72 h, ring stage, 1% parasitemia, 2% hematocrit, Giemsa smears

Method for HEK293T cells: The mammalian cell lines HepG2 and HEK293T were used for cytotoxicity tests. The cells were cultured in Dulbecco’s modified Eagle medium supplemented with 10% fetal bovine serum and 1% penicillin/streptomycin in an incubator at 37°C with 5% CO2. Cells were seeded at a density of 1 × 10^5 cells/mL per well into a 96-well plate overnight and treated with different concentrations of peptides for 48 hours. To analyze the CC50 of peptides, a series of concentrations of peptides (0, 5, 10, 20, 30, 40, 50, 60, and 70 µM) were set to detect their cytotoxic concentrations. Then, 10% CCK-8 solution was added into each well and incubated for another 2 hours. The absorbance was monitored by a microplate reader at 450 nm. PBS was used as a negative control and the inhibition of each drug was normalized to that of the PBS control. CC50 was calculated by GraphPad Prism. Two independent assays with three technical replicates each time were conducted.

With “APRWKFGKRLEKLGRNVF-NH2 [An-cecB-1, truncated peptide of An-cecB, anterior part]” the “Normal (number of parasites)” value ([1]; 40 µM An-cecB or 200 µM An-cecB-1, 30 or 60 min, total 20 (An-cecB), 22 (An-cecB-1)) was 7, the “Disintegration (number of parasites)” value [1, 8] was 0 and the “Parasite disoriented (number of parasites)” value [1, 8] was 0. For the same substance, the “Parasite membrane dissolution (number of parasites)” value [1, 8] was 2, the “Parasite shrunken (number of parasites)” value [1, 8] was 15 and the “Vacuole formation (number of parasites)” value [1, 8] was 7. For the same substance, the inhibition rate [2, 9] was 83.67%, the IC50 ([2]; 3D7, 72 h incubation, Giemsa smears, GraphPad Prism, two independent assays, three technical replicates) was 68.6 µM and the “Inhibition (%) of P. berghei growth” value ([3]; 10 mg/kg daily i.p. for 4 consecutive days) was 17.03%. The “Inhibition (%) of P. berghei growth” value ([3]; 25 mg/kg daily i.p. for 4 consecutive days) was 39.35%, the “Inhibition (%) of P. berghei growth” value ([3]; 50 mg/kg daily i.p. for 4 consecutive days) was 54.19% and the “hemolytic activity to infected erythrocytes” value [4] was “did not”. For the same substance, the MIC (Bacillus subtilis (ATCC); OD600) was 25 µM, the MIC50 (Bacillus subtilis (ATCC); OD600, GraphPad Prism) was 18.94 µM and the MIC ([5]; OD600) was > 200 µM. The MIC50 ([5]; OD600, GraphPad Prism) was > 200 µM, the MIC ([6]; OD600) was 25 µM and the MIC50 ([6]; OD600, GraphPad Prism) was 12.7 µM. The “cytotoxicity to HEK293T cells” value (HEK293T cells) was “No cytotoxicity” and the “hemolysis of cholesterol-depleted erythrocytes” value [7] was “no hemolysis effect”.

GKRLEKLGRNVFRAAKK-NH2 [An-cecB-3] was tested, and the inhibition rate [2, 9] was 24.74% and the “cytotoxicity to HEK293T cells” value (HEK293T cells) was “No cytotoxicity”.

Work on “GRLKKLGKKIEGAGKRVFKAA EKALPVVAGVKAL-NH2 [An-cecA]” yielded an inhibition rate [2, 10] of 18.7%.

RAAKKALPVIAGYKAL-NH2 [An-cecB-2] was tested, and the inhibition rate [2, 9] was 12.14% and the “cytotoxicity to HEK293T cells” value (HEK293T cells) was “No cytotoxicity”.

With “RRFKKFLKKVEGAGRRVANAA QKGLPLAAGVKGL-NH2 [An-cecC]” the inhibition rate [2, 10] was 40.16%.
